Source: patent US11498929B2, “Chromenopyrimidine derivatives as phosphatidylinsitol phosphate kinase inhibitors” (Hibercell, Inc., priority 2019, dated 2022)

Tests used:
MOLM-16 = MOLM-16 EC50 assay; assay type: cell-based; settings: MOLM16
[1] = biological target: T1, PIP4K2 B (GST-tagged PIP4KtypeIIB) (Homo sapiens, UniProt P78356); assay: Kinase Assay - PIP4K2 B (inhibition of PIP4K2 B kinase assay); assay type: biochemical; settings: compounds listed under IC50 bin headings
T1 construct: GST; made in house; host or cells: E. coli
T1 sequence (P78356 1-416): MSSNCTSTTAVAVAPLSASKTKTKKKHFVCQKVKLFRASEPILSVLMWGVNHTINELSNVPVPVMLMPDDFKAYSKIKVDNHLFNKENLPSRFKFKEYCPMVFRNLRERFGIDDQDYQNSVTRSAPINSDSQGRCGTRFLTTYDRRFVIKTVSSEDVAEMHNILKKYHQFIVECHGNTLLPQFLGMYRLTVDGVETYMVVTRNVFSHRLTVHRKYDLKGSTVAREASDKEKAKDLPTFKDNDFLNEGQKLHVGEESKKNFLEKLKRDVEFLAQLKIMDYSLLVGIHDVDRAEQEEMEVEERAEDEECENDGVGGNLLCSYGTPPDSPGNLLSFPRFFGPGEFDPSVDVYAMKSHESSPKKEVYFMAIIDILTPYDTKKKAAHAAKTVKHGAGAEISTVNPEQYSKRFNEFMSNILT
Source text: GST tagged PIP4KtypeIIA and B enzymes were overexpressed in E. Coli and purified to >80% homogeneity. Phosphatidyl inositol-5-phosphate (PI5P, Cat. #850152, Avanti Polar Lipids Inc.) was used as the lipid substrate and phosphatidyl ethanolamine (DOPE 18:1, Cat. #850725, Avanti Polar Lipids Inc.) was used as the carrier lipid for assays. Ultrapure ATP and GTP was purchased from Bellbrooke Labs. ADP Glo reagents were obtained from Promega. Transcreener FI reagent was obtained from Bellbrooke labs.
GST-tagged PIP4KtypeIIB (3.4 uL, 2.77 mg/mL) was diluted to 5 mL using HNE buffer to yield 5× enzyme stock (25 nM)
Lipid Preparation: In a 10 mL pyrex glass vial, 1 ug of PI5P and 1 ug of DOPE were suspended in 2.5 mL of HEPES buffer mix and 2.5 mL of H:E buffer. The contents were mixed and sonicated for 3 min to yield a translucent lipid stock.
Compound Preparation: Compounds were stored as 5 mM stocks in neat DMSO as room temperature in glass vials. 5 mM stocks were diluted to 2 mM and then serially diluted (3×) in neat DMSO in 96 well polypropylene plates. From the serially diluted stocks, 3 uL was delivered into 250 uL of 25% DMSO (in water) to generate 5× compound stocks. Typically, the highest compound conc. was 24 uM.
The assay volume was kept at 25 uL. To each well of the reaction plate, 10 uL of lipid stock (1:1 ratio PI5P:DOPE) was delivered. This was followed by the addition of 5 uL of compound in 25% DMSO. Then, to each well, 5 uL of 25 nM (5×) typeIIB enzyme was delivered. The contents were mixed well and incubated for 1 h at 27 C. After 1 h, reaction was initiated by adding 5 uL of 500 uM GTP and the contents were mixed well with a multi-channel pipetteman. The final concentration of the reagents are as follows: 50 mM HEPES, pH 7.3, 10 mM MgCl2, 20 mM NaCl, 0.01% v/v triton-X100, 5% DMSO, 100 uM GTP, 80 uM (2 ug) PI5P, 2 ug DOPE, and 5 nM PIP4KIIB Typically, the highest conc. of compounds was 4.8 uM and the lowest conc. was 0.
After 2 h, the reaction was quenched by adding 25 uL of transcreener FI reagent. The contents were incubated at RT for 1 h and the Fluorescence (Ex:584 Em: 623) was read using Molecular Devices Paradigm plate reader. […] The blanks were averaged and subtracted from all other wells. Using a calibration curve, RFU was converted to uM GDP (product). IC50 was calculated by plotting the residual activity (expressed as % No inhibitor control) vs. log [Inh. conc.]

PIP4K2A = biological target: T2, PIP4K2A (Homo sapiens, UniProt P48426); assay: Kinase Assay - PIP4K2 A (inhibition of PIP4K2 A kinase assay); assay type: biochemical; settings: compounds listed under IC50 bin headings
T2 construct: GST; made in house; host or cells: E. coli
T2 sequence (P48426 1-406): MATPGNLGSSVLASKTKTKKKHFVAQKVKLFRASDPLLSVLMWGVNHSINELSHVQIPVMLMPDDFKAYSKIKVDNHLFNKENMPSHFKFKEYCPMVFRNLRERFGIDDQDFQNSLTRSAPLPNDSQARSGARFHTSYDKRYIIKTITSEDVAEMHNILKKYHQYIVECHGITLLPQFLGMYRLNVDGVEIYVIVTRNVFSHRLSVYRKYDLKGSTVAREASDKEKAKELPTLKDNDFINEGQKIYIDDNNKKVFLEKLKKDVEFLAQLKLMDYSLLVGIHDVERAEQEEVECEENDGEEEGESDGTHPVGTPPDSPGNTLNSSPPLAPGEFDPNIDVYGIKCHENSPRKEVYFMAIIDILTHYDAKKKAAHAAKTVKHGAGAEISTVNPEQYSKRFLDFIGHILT
Procedure: Dilution series of the compounds were prepared in DMSO at 100 times the final assay concentration (n1=n0/3 in 10 points). The compounds were further diluted to three times the assay concentration in assay buffer (20 mM MOPS pH 7.2, 25 mM magnesium chloride, 0.005% Tween 20). 6 μL of the diluted compounds were added to a 384 well assay plate followed by 9 μL of a mix consisting of 4 nM PIP4K2A (full length protein, SignalChem) and 100 μM PI(5)P diC8 (Tebu-Bio). Enzyme and compounds were pre-incubated at room temperature for 15 minutes.
Then 3 μL of a solution containing 60 μM ATP (Promega) in assay buffer was added to the wells containing compound and enzyme and mixing was performed by pipetting several times. The reaction was incubated at room temperature for 1 h. Then 18 μL of ADP-Glo™ Reagent (Promega) was added to stop the kinase reaction and deplete the unconsumed ATP, mixing was performed by pipetting several times. The plate was incubated at room temperature for 40 minutes before addition of 36 μL of Kinase Detection Reagent (Promega) to convert ADP to ATP and introduce luciferase and luciferin to detect ATP. The reaction was incubated at room temperature for 40 minutes before the luminescence was measured in a in a Victor 3V 1420 multilabel counter (Perkin Elmer).
Percent inhibition of the compounds as compared to dimethyl sulfoxide treated control samples was calculated. Compound concentration versus percent inhibition were fitted to generate IC50 values. […]

Structure (SMILES)	EC50 (MOLM-16) [nM]	IC50 [1] [nM]	IC50 (PIP4K2A) [nM]
Cc1cnnn1-c1ccc2c(c1)OC(C)(C)c1nc(Nc3cnc4c(c3)N(C(=O)CN(C)C)CCO4)ncc1-2 [Compound 10, 1-(7-{[5,5-dimethyl-8-(5-methyl-1H-1,2,3-triazol-1-yl)-5H-chromeno[3,4-d]pyrimidin-3-yl]amino}-1H,2H,3H-pyrido[2,3-b][1,4]oxazin-1-yl)-2-(dimethylamino)ethan-1-one]	100 to 1000	1 to 10	≤ 1
CNC(=O)N1CCOc2ncc(Nc3ncc4c(n3)C(C)(C)Oc3cc(-c5nocc5C)ccc3-4)cc21 [Compound 11, 7-{[5,5-dimethyl-8-(4-methyl-1,2-oxazol-3-yl)-5H-chromeno[3,4-d]pyrimidin-3-yl]amino}-N-methyl-1H,2H,3H-pyrido[2,3-b][1,4]oxazine-1-carboxamide]	100 to 1000	1 to 10	≤ 1
CNC(=O)N1CCOc2ncc(Nc3ncc4c(n3)C(C)(C)Oc3cc(-n5nncc5C)ccc3-4)cc21 [Compound 8, 7-{[5,5-dimethyl-8-(5-methyl-1H-1,2,3-triazol-1-yl)-5H-chromeno[3,4-d]pyrimidin-3-yl]amino}-N-methyl-1H,2H,3H-pyrido[2,3-b][1,4]oxazine-1-carboxamide]	100 to 1000	1 to 10	≤ 1
Cc1cnnn1-c1ccc2c(c1)OC(C)(C)c1nc(Nc3cncc(N4CCN(CCO)CC4)c3)ncc1-2 [Compound 6, 2-[4-(5-{[5,5-dimethyl-8-(5-methyl-1H-1,2,3-triazol-1-yl)-5H-chromeno[3,4-d]pyrimidin-3-yl]amino}pyridin-3-yl)piperazin-1-yl]ethan-1-ol]	100 to 1000	1 to 10	≤ 1
CCN1CCN(Cc2cncc(Nc3ncc4c(n3)C(C)(C)Oc3cc(N5CCCC5=O)ccc3-4)c2)CC1 [Compound 4, 1-[3-({5-[(4-ethylpiperazin-1-yl)methyl]pyridin-3-yl}amino)-5,5-dimethyl-5H-chromeno[3,4-d]pyrimidin-8-yl]pyrrolidin-2-one]	10 to 100	100 to 1000	10 to 100
CN(C)CCOc1cncc(Nc2ncc3c(n2)C(C)(C)Oc2cc(N4CCCC4=O)ccc2-3)c1 [Compound 33, 1-[3-({5-[2-(dimethylamino)ethoxy]pyridin-3-yl}amino)-5,5-dimethyl-5H-chromeno[3,4-d]pyrimidin-8-yl]pyrrolidin-2-one]	10 to 100	100 to 1000	10 to 100
Cc1cnnn1-c1ccc2c(c1)OC(C)(C)c1nc(Nc3cnc4c(c3)N(C(=O)N(C)C)CCO4)ncc1-2 [Compound 5, 7-{[5,5-dimethyl-8-(5-methyl-1H-1,2,3-triazol-1-yl)-5H-chromeno[3,4-d]pyrimidin-3-yl]amino}-N,N-dimethyl-1H,2H,3H-pyrido[2,3-b][1,4]oxazine-1-carboxamide]	100 to 1000	1 to 10	≤ 1
CCN(CC)CCN(C)c1cncc(Nc2ncc3c(n2)C(C)(C)Oc2cc(N4CCCC4=O)ccc2-3)c1 [Compound 32, 1-{3-[(5-{[2-(diethylamino)ethyl](methyl)amino}pyridin-3-yl)amino]-5,5-dimethyl-5H-chromeno[3,4-d]pyrimidin-8-yl}pyrrolidin-2-one]	10 to 100	100 to 1000	10 to 100
CNC(=O)N1CCOc2ncc(Nc3ncc4c(n3)C(C)(C)Oc3cc(N5CCCC5=O)ccc3-4)cc21 [Compound 7, 7-{[5,5-dimethyl-8-(2-oxopyrrolidin-1-yl)-5H-chromeno[3,4-d]pyrimidin-3-yl]amino}-N-methyl-1H,2H,3H-pyrido[2,3-b][1,4]oxazine-1-carboxamide]	10 to 100	1 to 10	≤ 1
Cc1conc1-c1ccc2c(c1)OC(C)(C)c1nc(Nc3cnc4c(c3)N(C(=O)N(C)C)CCO4)ncc1-2 [Compound 15, 7-{[5,5-dimethyl-8-(4-methyl-1,2-oxazol-3-yl)-5H-chromeno[3,4-d]pyrimidin-3-yl]amino}-N,N-dimethyl-1H,2H,3H-pyrido[2,3-b][1,4]oxazine-1-carboxamide]	100 to 1000	1 to 10	≤ 1
CC1(C)Oc2cc(N3CCCC3=O)ccc2-c2cnc(Nc3cncc(CNCCS(C)(=O)=O)c3)nc21 [Compound 31, 1-{3-[(5-{[(2-methanesulfonylethyl)amino]methyl}pyridin-3-yl)amino]-5,5-dimethyl-5H-chromeno[3,4-d]pyrimidin-8-yl}pyrrolidin-2-one]	10 to 100	10 to 100	10 to 100
CCN(CC)CCNC(=O)N1CCOc2ncc(Nc3ncc4c(n3)C(C)(C)Oc3cc(N5CCCC5=O)ccc3-4)cc21 [Compound 1, N-[2-(diethylamino)ethyl]-7-{[5,5-dimethyl-8-(2-oxopyrrolidin-1-yl)-5H-chromeno[3,4-d]pyrimidin-3-yl]amino}-1H,2H,3H-pyrido[2,3-b][1,4]oxazine-1-carboxamide]	10 to 100	10 to 100	1 to 10
Cc1cnnn1-c1ccc2c(c1)OC(C)(C)c1nc(Nc3cnc4c(c3)N(C(=O)NC3CC3)CCO4)ncc1-2 [Compound 9, N-cyclopropyl-7-{[5,5-dimethyl-8-(5-methyl-1H-1,2,3-triazol-1-yl)-5H-chromeno[3,4-d]pyrimidin-3-yl]amino}-1H,2H,3H-pyrido[2,3-b][1,4]oxazine-1-carboxamide]	100 to 1000	1 to 10	≤ 1
CN1CCN(CC(=O)N2CCOc3ncc(Nc4ncc5c(n4)C(C)(C)Oc4cc(N6CCCC6=O)ccc4-5)cc32)CC1 [Compound 22, 1-[5,5-dimethyl-3-({1-[2-(4-methylpiperazin-1-yl)acetyl]-1H,2H,3H-pyrido[2,3-b][1,4]oxazin-7-yl}amino)-5H-chromeno[3,4-d]pyrimidin-8-yl]pyrrolidin-2-one]	10 to 100	10 to 100	1 to 10
